{
  "source": "paper PMC8708875",
  "about": "(Pharmaceutics, 2021)",
  "system": "differentiated C2C12 myotubes",
  "experiment": "qPCR gene expression in differentiated C2C12 myotubes",
  "type": "cell-based, mouse",
  "conditions": "Ric peptides 100 µM, insulin positive control, qPCR normalised to GAPDH, control = 1, mean ± SEM",
  "method": "C2C12 cells were used as a well-described model of skeletal muscle to evaluate the effect of peptides in gene expression, cell signaling, and glucose uptake. These cells were kindly provided by Prof. Patricia Brum, School of Physical Education and Prof. Anselmo Moriscot, Biomedical Science Institute, University of São Paulo, São Paulo, Brazil. C2C12 cells were cultured and maintained in high glucose Dulbecco's modified Eagle's medium (DMEM; Thermo Fisher Scientific, São Paulo, SP, Brazil) supplemented with 10% fetal bovine serum (FBS), 100 U/mL penicillin, and […] streptomycin in a humidified atmosphere of 5% CO2 at 37 °C. The cells were used in low pass (between passages 2 and 4) for all experiments to maintain the potential for differentiation of cultures. Cells grown to approximately 70% confluence in T75 culture flasks were treated with trypsin and seeded in various P100 culture dishes. Cells were then cultured in the presence of 10% FBS until they reach about 90% confluence, at which point the medium was replaced with DMEM containing 2% horse serum for the induction of differentiation in myotubes. During this time, the fused myoblasts formed elongated, multi-nucleated myotubes, and within 7 days more than 95% of the cells already fused into myotubes. Cultures of C2C12 were treated with phosphate buffer saline (137 mM NaCl, 2.7 mM KCl, 10 mM Na2HPO4, and 1.8 mM KH2PO4, pH 7.4; PBS; control), insulin or […], for the indicated period of time. From these treatments the cells were processed for molecular analyses. Real-time PCR (qPCR) experiments were performed to evaluate the mRNA expression levels, at basal and under stimulus, for peroxisome proliferator activator receptor gamma (PPARγ), peroxisome proliferator activator receptor […] responsive element binding protein 1 (Creb1), aldolase A, fructose-bisphosphate (ALDOA), cytochrome c oxidase subunit IV isoform 1 (Cox4i1), phosphoglycerate mutase 2 (PGAM2), troponin I, skeletal, fast 2 (TNNI2), […] (TNNT3), small muscle protein X-linked (SMPX), myosin, […] (MYH1), insulin-growth factor 1 (IGF1), Glucose transporter 4 (GLUT4), and lipoprotein lipase (LPL). Primers sequences are described in Supplementary Materials (Table S1). Cells were homogenized and total RNA extracted using Trizol according to the manufacturer's instructions (TRIzol, Life Technologies, Rockville, MD, USA). After extraction of RNA, all samples were purified and treated with DNAse using RNeasy Mini Kit (Qiagen, Foster City, CA, USA). The integrity of the RNA was verified by 1% agarose gel electrophoresis stained with ethidium bromide and visualized in ultraviolet light. […] The standard curves for all the primers used herein were previously constructed to determine the efficiency of the amplification of the target and reference genes. Quantitative PCRs were performed using the Prism 7900 sequence detection system (Applied Biosystems, Foster City, CA, USA) with 100 nM primer and 20 ng cDNA. The expression of mRNA targets was normalized by expression of gene glyceraldehyde 3-phosphate dehydrogenase (GAPDH) or hipoxantina-guanina fosforibosiltransferase (HPRT) and expressed as relative values using the 2 DDCt method. The expression levels of target genes were normalized with housekeeping genes GAPDH or HPRT, and alterations were expressed relative to control unstimulated cells. […] Therefore, the possible effects of Ric1-Ric4 (100 μM) on gene expression were evaluated. For all these experiments, insulin was used as “gold standard”/positive control, and GAPDH expression was used as normalization control (Table 2, Control “1”/100%). Relative to GAPDH expression, insulin increased the expression of all genes evaluated (Table 1). […]",
  "data": [
    {"substance": "Insulin", "values": [
      {"measurement": "relative expression of Aldolase A, fructose-bisphosphate (ALDOA)", "result": "7.65 ± 0.96"},
      {"measurement": "relative expression of Cytochrome c oxidase subunit IV isoform 1 (Cox4i1)", "result": "6.71 ± 1.24"},
      {"measurement": "relative expression of Peroxisome proliferator activator receptor gamma (PPARγ)", "result": "6.98 ± 1.23"},
      {"measurement": "relative expression of Phosphoglycerate mutase 2 (PGAM2)", "result": "8.26 ± 0.99"},
      {"measurement": "relative expression of Small muscle protein X-linked (SMPX)", "result": "5.96 ± 0.98"},
      {"measurement": "relative expression of Troponin I, skeletal, fast 2 (TNNI2)", "result": "6.36 ± 1.13"},
      {"measurement": "relative expression of Troponin I, skeletal, fast 3 (TNNT3)", "result": "6.22 ± 0.98"},
      {"measurement": "relative expression of cAMP responsive element binding protein 1 (Creb1)", "result": "6.48 ± 1.08"}
    ]},
    {"substance": "LASVSTVLTSKYR [Ric4, intracellular peptide derived from hemoglobin alpha subunit, last 13 C-terminal amino acids]", "values": [
      {"measurement": "relative expression of Aldolase A, fructose-bisphosphate (ALDOA)", "result": "4.22 ± 0.74"},
      {"measurement": "relative expression of Cytochrome c oxidase subunit IV isoform 1 (Cox4i1)", "result": "1.41 ± 1.12"},
      {"measurement": "relative expression of Peroxisome proliferator activator receptor gamma (PPARγ)", "result": "1.21 ± 1.02"},
      {"measurement": "relative expression of Phosphoglycerate mutase 2 (PGAM2)", "result": "2.65 ± 0.87"},
      {"measurement": "relative expression of Small muscle protein X-linked (SMPX)", "result": "3.21 ± 0.99"},
      {"measurement": "relative expression of Troponin I, skeletal, fast 2 (TNNI2)", "result": "3.14 ± 0.65"},
      {"measurement": "relative expression of Troponin I, skeletal, fast 3 (TNNT3)", "result": "2.38 ± 0.72"},
      {"measurement": "relative expression of cAMP responsive element binding protein 1 (Creb1)", "result": "1.03 ± 0.85"}
    ]}
  ]
}
